PubChem BioAssay (NCI)
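Where inhibition never reached the appropriate level, the endpoint shown equals the highest concentration tested. Otherwise, values were interpolated linearly from a five-concentration, 48-hour dose response in 96-well plates. GI50: concentration for 50% inhibition of growth. TGI: total growth inhibition.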

What was measured:
Experiment in all cases: DTP human tumour cell line panel, 48 h
[1] = system: SK-MEL-5 melanoma
[2] = system: U251 CNS
[3] = system: PC-3 prostate
[4] = system: DU-145 prostate
[5] = system: HL-60(TB) leukemia
[6] = system: NCI-H460 lung
[7] = system: 786-0 renal
[8] = system: KM12 colon
[9] = system: HOP-62 NSCLC
[10] = system: MDA-MB-435

SMILES | GI50 [1] | TGI [1] | GI50 [2] | TGI [2] | GI50 [3] | TGI [3] | GI50 [4] | TGI [4] | GI50 [5] | TGI [5] | GI50 [6] | TGI [6] | GI50 [7] | TGI [7] | GI50 [8] | TGI [8] | GI50 [9] | TGI [9] | GI50 [10] | TGI [10]
COc1cc2c3c(n(CCCN4CCNCC4)c(=O)c2cc1OC)-c1cc2c(cc1C3=O)OCO2 | 1.33 µM | 10.5 µM | 0.0892 µM | 2.92 µM | 0.94 µM | 10.1 µM | 0.0439 µM | 1.02 µM | 0.00886 µM | 0.746 µM | 0.00951 µM | 2.07 µM | 0.0513 µM | 0.429 µM | 0.633 µM | 2.24 µM | 0.0265 µM | 0.138 µM | 3.27 µM | 11.3 µM
C/C(=N\NC(=S)N1CCN(c2ccccn2)CC1)c1ccccn1 | 0.0688 µM | 13.5 µM | < 0.0161 µM | 12.9 µM |  | 15.1 µM |  | 14.1 µM | 0.0416 µM | 0.0104 µM | 0.0102 µM | 12.9 µM | 0.00656 µM | 13.5 µM | 0.0219 µM | 14.1 µM | 0.0475 µM | 12.7 µM |  | 12.3 µM
CCCCCCC1N=C(N)N=C(N)N1c1cccc(Cl)c1 (configuration not stated) | 0.474 µM | 13 µM | 0.0616 µM | 13.7 µM | 0.0576 µM | 16 µM | 0.587 µM | 18 µM | 1.14 µM | 10.7 µM | 0.0873 µM | 12.7 µM | 0.289 µM | 13.3 µM | 0.421 µM | 7.26 µM | 0.436 µM | 10.9 µM | 0.0479 µM | 13.2 µM
COC1=CC(c2ccc[nH]2)=N/C1=C\c1[nH]c(C)c(C(=O)CCC(=O)Oc2ccc3c(c2)CCC2C3CC[C@]3(C)[C@@H](O)CC[C@@H]23)c1C (some centres not stated) | 1.46 µM | 2.91 µM | 2.99 µM | 28.4 µM | 3.8 µM | > 100 µM | 3.54 µM | > 100 µM | 4.7 µM | > 100 µM | 3.07 µM | > 100 µM | 2.04 µM | 4.35 µM | 3 µM | > 100 µM | 1.87 µM | 4.95 µM | 3.25 µM | > 100 µM
CNS(=O)(=O)OCC1OC(n2cnc3cncnc32)C(O)C1O (configuration not stated) | > 100 µM | > 100 µM | > 100 µM | > 100 µM | > 100 µM | > 100 µM | > 100 µM | > 100 µM | > 100 µM | > 100 µM | > 100 µM | > 100 µM | > 100 µM | > 100 µM | > 100 µM | > 100 µM | > 100 µM | > 100 µM | > 100 µM | > 100 µM
NC(=O)c1cccc2c(N[C@H](CN3CCC3)c3ccc(Cl)c(C(F)(F)F)c3)ncnc12 | 1.7 µM | 3.27 µM | 0.548 µM | 12.1 µM | 0.638 µM | 12.8 µM | 2.24 µM | 16.2 µM | 2.13 µM | 5.64 µM | 0.739 µM | 12.4 µM | 0.0921 µM | 1.76 µM | 0.885 µM | 13.3 µM | 0.964 µM | 14.5 µM | 1.44 µM | 11.3 µM
Oc1c(C(Nc2ccccn2)c2cccc(Oc3ccccc3)c2)ccc2cccnc12 (configuration not stated) | 0.388 µM | 2.16 µM | 0.362 µM | 14 µM | 0.483 µM | 20.1 µM | 0.774 µM | 16.2 µM | 0.432 µM | 37 µM | 0.365 µM | 10.5 µM | 0.657 µM | 11.1 µM | 0.45 µM | 23.4 µM | 0.448 µM | 21 µM | 0.496 µM | 16.4 µM
Oc1cc(N2CC2)c(O)cc1N1CC1 | 0.874 µM | 2.99 µM | 0.577 µM | 10.7 µM | 1.85 µM | 14.6 µM | 0.254 µM | 1.37 µM | 0.238 µM | 2.14 µM | 0.21 µM | 5.15 µM | 0.742 µM | 4.69 µM | 1.63 µM | 4.44 µM | 0.632 µM | 2.99 µM | 1.37 µM | 3.32 µM
